# Source: patent publication US8168832B2, “2,4,6-trialkylphenyl substituted cyclopentane-1,3-dione” (Bayer Cropscience AG, priority 2006, dated 2012)
# What was measured:
# crop plants (cereal) = assay: Container trials with cereal in the greenhouse, mefenpyr 1 day prior to herbicide application (Example B, use of safeners); format: in vivo; details: without safener
# Method: Seeds of monocotyledonous and dicotyledonous weed and crop plants are placed into sandy loam in wood fiber pots or in plastic pots, covered with soil and cultivated in a greenhouse, during the vegetation period also outdoors outside of the greenhouse, under good growth conditions. 2 to 3 weeks after sowing, the test plants are treated at the one- to three-leaf stage. The test compounds, formulated as wettable powders (WP) or liquid (EC), are, in various dosages at a water application rate of 300 l/ha (converted), with wetting agent (0.2 to 0.3%) added, sprayed onto the plants and the surface of the soil. […]
# If it is additionally to be tested as to whether safeners can improve the plant compatibility of test substances in the case of crop plants, the following options are used for applying the safener: • seeds of the crop plants are, before sowing, dressed with the safener substance (the amount of safener stated in percent, based on the weight of the seed) • before the application of the test substances, the crop plants are sprayed with the safener at a certain application rate per hectare (usually 1 day before the application of the test substances) • the safener is applied together with the test substance as a tank mix (the amount of safener is stated in g/ha or as a ratio, based on the herbicide). • By comparing the effect of test substances on crop plants without or with safener treatment, it is possible to assess the effect of the safener substance.
# Container Trials with Cereal in the Greenhouse
# Mefenpyr 1 Day Prior to Herbicide Application
# [1] = tested on: monocotyledonous and dicotyledonous weed and crop plants; assay: Herbicidal post-emergence action (Example B), also comparison with known compounds; format: in vivo; parameters: key: % herbicidal effect: 0 = like control, 100 = plants died
# Method: Seeds of monocotyledonous and dicotyledonous weed and crop plants are placed into sandy loam in wood fiber pots or in plastic pots, covered with soil and cultivated in a greenhouse, during the vegetation period also outdoors outside of the greenhouse, under good growth conditions. 2 to 3 weeks after sowing, the test plants are treated at the one- to three-leaf stage. The test compounds, formulated as wettable powders (WP) or liquid (EC), are, in various dosages at a water application rate of 300 l/ha (converted), with wetting agent (0.2 to 0.3%) added, sprayed onto the plants and the surface of the soil. 3 to 4 weeks after the treatment of the test plants, the effect of the preparations is rated visually in comparison to untreated controls (herbicidal effect in percent (%): 100% effect=the plants have died, 0% effect=like control plants).
# [2] = 28 days after application, 25 g of a.i./ha
# [3] = 28 days after application, 50 g of a.i./ha
# [4] = 28 days after application, 100 g of a.i./ha
# [5] = 10 days after application, 25 g of a.i./ha
# [6] = 10 days after application, 50 g of a.i./ha
# [7] = 10 days after application, 100 g of a.i./ha
# [8] = 28 days after application, 12.5 g of a.i./ha
# [9] = 10 days after application, 200 g of a.i./ha
Compound,Summer barley observed (%) (crop plants (cereal); [2]),Summer wheat observed (%) (crop plants (cereal); [2]),Summer barley observed (%) (crop plants (cereal); [3]),Summer wheat observed (%) (crop plants (cereal); [3]),Summer barley observed (%) (crop plants (cereal); [4]),Summer wheat observed (%) (crop plants (cereal); [4]),Summer wheat observed (%) (crop plants (cereal); [5]),Summer barley observed (%) (crop plants (cereal); [6]),Summer wheat observed (%) (crop plants (cereal); [6]),Summer barley observed (%) (crop plants (cereal); [7]),Summer wheat observed (%) (crop plants (cereal); [7]),Summer wheat observed (%) (crop plants (cereal); [8]),other results
CCc1cc(C)cc(C)c1C1=C(O)C2CCCCCC2C1=O (centres unmarked) [I-a-18],20,60,50,70,90,80,–,–,–,–,–,–,–
CCc1cc(C)cc(CC)c1C1=C(O)C2CC3OC(C)(C)OC3CC2C1=O (mixture of isomers) [I-a-13],–,–,–,–,–,–,50,50,80,60,80,–,Summer barley observed (%) (crop plants (cereal); [5]): 30%
CCc1cc(C)cc(CC)c1C1=C(OC(=O)C(C)C)[C@H]2CCCC[C@@H]2C1=O (relative stereo) [I-b-28],30,70,75,80,–,–,–,–,–,–,–,10,Summer barley observed (%) (crop plants (cereal); [8]): 20%
CCc1cc(C)cc(CC)c1C1=C(OC(=O)OC)C2CCCCC2C1=O (centres unmarked) [I-c-10],25,40,50,80,90,85,–,–,–,–,–,–,–
CCc1cc(C)cc(C)c1C1=C(OC(=O)COC)C2(CCCC2)CC1=O [I-b-11],–,–,–,–,–,–,–,–,30,–,50,–,–
CCc1cc(CC)c(C2=C(OC(=O)COC)C3CCCCC3C2=O)c(CC)c1 (centres unmarked) [I-b-42],–,–,–,–,–,–,40,40,50,50,50,–,Summer barley observed (%) (crop plants (cereal); [5]): 20%
CCC(=O)OC1=C(c2c(CC)cc(C)cc2CC)C(=O)C2CCCCC12 (centres unmarked) [I-b-44],–,–,–,–,–,–,20,40,40,40,40,–,Summer barley observed (%) (crop plants (cereal); [5]): 20%
CCc1cc(C)cc(CC)c1C1=C(OC(=O)COC)[C@H]2CCCC[C@H]2C1=O (relative stereo) [I-b-25],–,10,40,50,95,70,–,–,–,–,–,–,–
CCc1cc(CC)c(C2=C(O)C3CCCCC3C2=O)c(CC)c1 (centres unmarked) [I-a-15],–,–,–,–,–,–,–,20,20,30,30,–,–
CCc1cc(C)cc(C)c1C1=C(OC(=O)COC)C2CCCCC2C1=O (centres unmarked) [I-b-15],10,30,30,50,90,85,–,–,–,–,–,10,–
CCc1cc(C)cc(C)c1C1=C(OC(=O)C(C)C)C2CCCCC2C1=O (centres unmarked) [I-b-16],–,–,–,–,–,–,20,40,50,60,60,–,Summer barley observed (%) (crop plants (cereal); [5]): 20%
CCc1cc(C)cc(C)c1C1C(=O)[C@H]2CCCC[C@@H]2C1=O [I-a-1],50,40,70,50,–,50,–,–,–,–,–,10,Summer barley observed (%) (crop plants (cereal); [8]): 5%
CCc1cc(C)cc(CC)c1C1=C(OC(=O)COC)[C@H]2CCCC[C@@H]2C1=O (relative stereo) [I-b-27],–,20,20,40,50,70,–,–,–,–,–,10,–
CCOC(=O)OC1=C(c2c(CC)cc(C)cc2CC)C(=O)C2CCCCC12 (centres unmarked) [I-c-8],–,–,–,–,–,–,50,20,70,30,80,–,Summer barley observed (%) (crop plants (cereal); [5]): 15%
CCc1cc(C)cc(C)c1C1=C(OC(=O)COC)C2CCCCC2C1=O (centres unmarked) [I-b-13],20,70,90,85,–,–,–,–,–,–,–,20,Summer barley observed (%) (crop plants (cereal); [8]): 10%
CCc1cc(C)cc(CC)c1C1=C(OC(=O)COC)C2(CCCCC2)CC1=O [I-b-33],–,–,–,–,–,–,15,–,30,–,65,–,–
CCc1cc(C)cc(C)c1C1=C(O)C2(CCCCC2)CC1=O [I-a-3],–,25,–,25,–,–,–,20,–,–,–,–,Summer barley observed (%) (crop plants (cereal); [5]): 15%
CCC(=O)OC1=C(c2c(C)cc(C)cc2CC)C(=O)C2CCCCC12 (centres unmarked) [I-b-21],30,60,50,70,95,–,–,–,–,–,–,20,Summer barley observed (%) (crop plants (cereal); [8]): 5%
CCc1cc(C)cc(CC)c1C1=C(OC(=O)C(C)C)[C@H]2CCCC[C@H]2C1=O (relative stereo) [I-b-23],–,–,–,–,–,–,40,60,70,60,80,–,"Summer wheat observed (%) (crop plants (cereal); 10 days after application, 12.5 g of a.i./ha): 30%; Summer barley observed (%) (crop plants (cereal); [5]): 30%"
CCc1cc(C)cc(CC)c1C1=C(O)C2CCCCC2C1=O (centres unmarked) [I-a-9],20,5,50,60,–,60,–,–,–,–,–,–,ALOMY ([1]; 100 g/ha): 98; AVEFA ([1]; 100 g/ha): 100; LOLMU ([1]; 100 g/ha): 99; ALOMY ([1]; 200 g/ha): 98; AVEFA ([1]; 200 g/ha): 100; LOLMU ([1]; 200 g/ha): 99
CCOC(=O)OC1=C(c2c(C)cc(C)cc2CC)C(=O)C2CCCCC12 (centres unmarked) [I-c-4],10,20,30,90,80,95,–,–,–,–,–,10,Summer barley observed (%) (crop plants (cereal); [8]): 5%
CCOC(=O)OC1=C(c2c(CC)cc(C)cc2CC)C(=O)C2CCCCC12 (centres unmarked) [I-c-9],20,30,40,60,90,70,–,–,–,–,–,10,Summer barley observed (%) (crop plants (cereal); [8]): 10%
CCc1cc(C)cc(CC)c1C1=C(OC(=O)OC)C2CCCCC2C1=O (centres unmarked) [I-c-14],30,80,93,95,–,–,–,–,–,–,–,20,–
CCc1cc(C)cc(CC)c1C1=C(OC(=O)C(C)(C)C)[C@H]2CCCC[C@H]2C1=O (relative stereo) [I-b-24],–,–,–,–,–,–,30,20,60,50,65,–,ALOMY ([1]; 100 g/ha): 80; AVEFA ([1]; 100 g/ha): 90; LOLMU ([1]; 100 g/ha): 95; ALOMY ([1]; 200 g/ha): 90; AVEFA ([1]; 200 g/ha): 95; LOLMU ([1]; 200 g/ha): 98; Summer barley observed (%) (crop plants (cereal); [9]): 60%; Summer wheat observed (%) (crop plants (cereal); [9]): 70%
CCc1cc(C)cc(CC)c1C1=C(OC(=O)C(C)(C)C)[C@H]2CCCC[C@@H]2C1=O (relative stereo) [I-b-26],–,–,20,15,80,70,–,–,–,–,–,–,ALOMY ([1]; 100 g/ha): 95; AVEFA ([1]; 100 g/ha): 98; LOLMU ([1]; 100 g/ha): 70; ALOMY ([1]; 200 g/ha): 97; AVEFA ([1]; 200 g/ha): 98; LOLMU ([1]; 200 g/ha): 100
